According to US20230392179A1 (SOOCHOW UNIVERSITY, priority 2021, published 2023):

Test system: Mycobacterium smegmatis containing plasmid PMV261-Kana^R-65S-RecA intein
Assay: Intein splicing inhibitor screening system: growth (OD600) of Mycobacterium smegmatis carrying Kana^R-65S-RecA intein in kanamycin medium
Conditions: 20 μM cisplatin, kanamycin 50 μg/mL plus hygromycin, 37° C., 100 h

## N.N.[Cl][Pt][Cl] [cisplatin]
  inhibition rate of growth of Mycobacterium smegmatis containing plasmid PMV261-Kana^R-65S-RecA intein: 62%
